Literature values in patent US20250031692A1, “HIGH LOAD SUSPENSION CONCENTRATE COMPOSITIONS” (ADAMA AGAN LTD., priority 2021, published 2025).

Experiments:
[1] = tested on: VLCFAE activity of the microsomal fraction of etiolated barnyard millet seedlings
[2] = biological target: T1, recombinant Fatty Acid Elongation 1 (FAE1) of Arabidopsis (Arabidopsis thaliana, UniProt Q38860)
T1 sequence (Q38860 1-506): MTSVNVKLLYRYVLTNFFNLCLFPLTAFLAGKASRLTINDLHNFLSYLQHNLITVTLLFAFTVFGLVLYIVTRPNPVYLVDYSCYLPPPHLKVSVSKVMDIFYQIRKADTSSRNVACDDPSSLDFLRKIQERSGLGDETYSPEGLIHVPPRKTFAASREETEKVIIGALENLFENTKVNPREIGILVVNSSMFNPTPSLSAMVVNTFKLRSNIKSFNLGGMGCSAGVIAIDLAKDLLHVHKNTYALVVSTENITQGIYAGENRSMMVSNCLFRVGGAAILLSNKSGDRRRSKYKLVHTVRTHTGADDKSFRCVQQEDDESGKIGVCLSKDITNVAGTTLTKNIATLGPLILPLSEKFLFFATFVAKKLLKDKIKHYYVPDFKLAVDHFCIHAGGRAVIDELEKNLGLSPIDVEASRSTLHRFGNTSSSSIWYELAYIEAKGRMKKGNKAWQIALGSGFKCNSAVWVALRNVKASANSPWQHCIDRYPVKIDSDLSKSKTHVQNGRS

[3] = tested on: Echinochloa spp. and other annual weeds; settings: 150-200 g a.i./ha; long residual activity
[4] = tested on: grass and broadleaf weeds; settings: at lower application rates compared with other commercial herbicides

For `CCOc1cc(Cl)c(CS(=O)(=O)C2=NOC(C)(C)C2)cc1Cl` [Fenoxasulfone, 3-[(2,5-dichloro-4-ethoxyphenyl)methylsulfonyl]-5,5-dimethyl-4H-1,2-oxazole], the “inhibition of VLCFAE activity” value [1] is given as “inhibited by fenoxasulfone in a time-independent manner”, the “inhibition of VLCFAE activity” value [2] is given as “inhibited by fenoxasulfone in a time-dependent manner” and the herbicidal activity [3] is given as “excellent herbicidal activity”.

For `Cn1nc(C(F)(F)F)c(CS(=O)(=O)C2=NOC(C)(C)C2)c1OC(F)F` [Pyroxasulfone], the herbicidal activity [4] is listed as “excellent herbicidal activity”.
